According to patent US10202361B2, “Pyridazinones as herbicides” (E I DU PONT DE NEMOURS AND COMPANY, priority 2014, dated 2019):
Like-named read-outs stand apart in the source and are kept apart here.

Tests used:
Test in all cases: Test C pre-/postemergence greenhouse herbicide test
Type in all cases: in vivo
[1] = test system: lambsquarters (Chenopodium album)
Summary of the method: (§1)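 Greenhouse pre- and postemergence screen: compounds in a non-phytotoxic solvent mix plus surfactant were applied to soil/sand-sown seeds or to 1- to 4-leaf plants. Visual rating 13–15 d later, 0 (no effect) to 100 (complete control).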

[2] = test system: nutsedge, yellow (yellow nutsedge, Cyperus esculentus); conditions: Cyperus, Nutsedge, Yellow, read-out: Plant response rating; for pest or weed control at 31 g/ha: 31 g ai/ha; for pest or weed control at 62 g/ha: 62 g ai/ha; for pest or weed control at 125 g/ha: 125 g ai/ha; for pest or weed control at 250 g/ha: 250 g ai/ha
Summary of the method: as §1

[3] = test system: oilseed rape (Brassica napus); conditions: Oilseed Rape
Summary of the method: as §1

[4] = test system: ryegrass, Italian (Italian ryegrass, Lolium multiflorum); conditions: Lolium multiflorum, Ryegrass, Italian, read-out: Plant response rating; for pest or weed control at 31 g/ha: 31 g ai/ha; for pest or weed control at 62 g/ha: 62 g ai/ha; for pest or weed control at 125 g/ha: 125 g ai/ha; for pest or weed control at 250 g/ha: 250 g ai/ha
Summary of the method: as §1

[5] = test system: soybean (Glycine max); conditions: Glycine max, Soybean, read-out: Plant response rating; for plant injury at 62 g/ha: 62 g ai/ha; for plant injury at 125 g/ha: 125 g ai/ha; for plant injury at 250 g/ha: 250 g ai/ha
Summary of the method: as §1

[6] = test system: velvetleaf (Abutilon theophrasti); conditions: Abutilon theophrasti, Velvetleaf, read-out: Plant response rating; for pest or weed control at 62 g/ha: 62 g ai/ha; for pest or weed control at 125 g/ha: 125 g ai/ha; for pest or weed control at 250 g/ha: 250 g ai/ha
Summary of the method: as §1

[7] = test system: waterhemp (common waterhemp, Amaranthus rudis); conditions: Waterhemp
Summary of the method: as §1

In the case of `COc1cc(=O)n(-c2ccc(C(F)(F)F)cc2)nc1Cc1ccnc(C(F)(F)F)c1` [Compound 16, 5-methoxy-2-[4-(trifluoromethyl)phenyl]-6-[[2-(trifluoromethyl)-4-pyridinyl]methyl]-3(2H)-pyridazinone], the Plant response rating ([1]; Postemergence, 250 g ai/ha) is reported as 95, the Plant response rating ([1]; Preemergence, 31 g ai/ha) is reported as 100 and the Plant response rating ([1]; Preemergence, 62 g ai/ha) is reported as 100. The Plant response rating ([1]; Preemergence, 125 g ai/ha) was 100, the Plant response rating ([1]; Preemergence, 250 g ai/ha) was 100 and the pest or weed control at 31 g/ha ([2]; post-emergence, Postemergence) was 5%. The pest or weed control at 62 g/ha ([2]; post-emergence, Postemergence) was 5%, the pest or weed control at 125 g/ha ([2]; post-emergence, Postemergence) was 5% and the pest or weed control at 250 g/ha ([2]; post-emergence, Postemergence) was 20%. It also gave a pest or weed control at 31 g/ha ([2]; pre-emergence, Preemergence) of 5%, a pest or weed control at 62 g/ha ([2]; pre-emergence, Preemergence) of 10% and a pest or weed control at 125 g/ha ([2]; pre-emergence, Preemergence) of 30%. The pest or weed control at 250 g/ha ([2]; pre-emergence, Preemergence) was 55%, the Plant response rating ([3]; Postemergence, 31 g ai/ha) was 60 and the Plant response rating ([3]; Postemergence, 62 g ai/ha) was 60. It also gave a Plant response rating ([3]; Postemergence, 125 g ai/ha) of 80, a Plant response rating ([3]; Preemergence, 31 g ai/ha) of 65 and a Plant response rating ([3]; Preemergence, 62 g ai/ha) of 100. It also gave a Plant response rating ([3]; Preemergence, 125 g ai/ha) of 100, a Plant response rating ([3]; Preemergence, 250 g ai/ha) of 100 and a pest or weed control at 31 g/ha ([4]; post-emergence, Postemergence) of 5%. The pest or weed control at 62 g/ha ([4]; post-emergence, Postemergence) was 5%, the pest or weed control at 125 g/ha ([4]; post-emergence, Postemergence) was 15% and the pest or weed control at 250 g/ha ([4]; post-emergence, Postemergence) was 35%. The pest or weed control at 31 g/ha ([4]; pre-emergence, Preemergence) was 5%, the pest or weed control at 62 g/ha ([4]; pre-emergence, Preemergence) was 30% and the pest or weed control at 125 g/ha ([4]; pre-emergence, Preemergence) was 85%. For the same compound, the pest or weed control at 250 g/ha ([4]; pre-emergence, Preemergence) was 90%, the plant injury at 62 g/ha ([5]; post-emergence, Postemergence) was 50% and the plant injury at 125 g/ha ([5]; post-emergence, Postemergence) was 55%. The plant injury at 250 g/ha ([5]; post-emergence, Postemergence) was 65%, the plant injury at 62 g/ha ([5]; pre-emergence, Preemergence) was 25% and the plant injury at 125 g/ha ([5]; pre-emergence, Preemergence) was 65%. The plant injury at 250 g/ha ([5]; pre-emergence, Preemergence) was 75%, the pest or weed control at 31 g/ha ([6]; post-emergence, Postemergence, 31 g ai/ha) was 25% and the pest or weed control at 62 g/ha ([6]; post-emergence, Postemergence) was 50%. For the same compound, the pest or weed control at 125 g/ha ([6]; post-emergence, Postemergence) was 60%, the pest or weed control at 250 g/ha ([6]; post-emergence, Postemergence) was 75% and the pest or weed control at 62 g/ha ([6]; pre-emergence, Preemergence) was 80%. For the same compound, the pest or weed control at 125 g/ha ([6]; pre-emergence, Preemergence) was 100%, the pest or weed control at 250 g/ha ([6]; pre-emergence, Preemergence) was 100% and the Plant response rating ([7]; Postemergence, 31 g ai/ha) was 80. The Plant response rating ([7]; Postemergence, 62 g ai/ha) was 90, the Plant response rating ([7]; Postemergence, 125 g ai/ha) was 95 and the Plant response rating ([7]; Postemergence, 250 g ai/ha) was 98. It also gave a Plant response rating ([7]; Preemergence, 62 g ai/ha) of 100, a Plant response rating ([7]; Preemergence, 125 g ai/ha) of 100 and a Plant response rating ([7]; Preemergence, 250 g ai/ha) of 100.
